# Reference: patent US20260199368A1, “[…] SYSTEM CONTAINING REMIMAZOLAM” (LTS LOHMANN THERAPIE-SYSTEME AG, priority 2022, published 2026)
# Legend:
# Goettingen minipigs = test: In vivo studies using Goettingen minipigs: depth of sedation score; details: Animal No 1; 10 min post dosing; IV, 2 mL of 5 mg/mL (10 mg)
# [1] = Mucosa permeation study (in vitro permeation test); type: in vitro ADME, pig
# Method: Where not otherwise indicated, the in vitro permeation test is performed with dermatomed split-thickness pig mucosa (mucosa oesophagus) with a thickness of 400 μm and an intact barrier function, and with phosphate buffer pH 7.4 as receptor medium (37° C.). The amount of active permeated into the receptor medium is determined in regular intervals using an HPLC method with a UV photometric detector by taking a sample volume. The measured amount of active permeated relates to the amount permeated between the two last sampling points and not the total amount permeated so far. Within the meaning of this invention, artificial saliva refers to an aqueous solution of 0.520 g/L potassium thiocyanate, 1.470 g/L potassium chloride, 0.190 g/L sodium dihydrogenphosphate monohydrate and 2.650 g/L sodium hydrogenphosphate dihydrate, adjusted to a pH of 7.0+/−0.05 using 1 N NaOH.
# For the investigation of the potential impact of pH on the permeation, a permeation study was performed to assess the permeation of remimazolam besylate (RMZ besylate) through the mucosa in dependence of pH value. In a second run, also the performance of remimazolam lyophilizate product (RMZ besylate) vs. oromucosal delivery system was assessed.
# The samples used for permeation run 1 are defined in Table 19.
# (§1) The permeated amount and the corresponding mucosa permeation rates of the oromucosal delivery system prepared according to Examples 2a were determined by in vitro experiments in accordance with the OECD Guideline (adopted Apr. 13, 2004) using pig mucosa with a thickness of 400 μm (mucosa oesophagus). The donor solutions were prepared by dissolving a sample film of Example 2a with a size of 5.75 cm^2 either in 5 ml artificial saliva or in 5 ml 0.9% NaCl. The remimazolam besylate was dissolved in artificial saliva so that the applied dose of RMZ was equivalent to an oromucosal delivery system containing 50 mg remimazolam in 500 μL medium, and the pH of the mixture was adjusted as indicated in Table 19. The pH was measured using a pH electrode. The permeation donor solutions were directly applied to the mucosa (diffusion area of 4.524 cm^2). The remimazolam permeated amount in the receptor medium (phosphate buffer solution pH 7.4) at a temperature of 37±1° C. was measured and the corresponding mucosa permeation rate calculated.
# (§2) Due to the high variability in permeation run 1 (n=3), a second permeation experiment was performed with more replicates (n=6) to enlarge the data basis. The samples used are defined in table 15. Example 2a and Lyophilizate were dissolved in artificial saliva and 0.9% NaCl, respectively. Due to a pH adjustment in the lyophilizate/drug product, the resulting pH was slightly lower (pH 3.14 and pH 3.09) than with the Example 2a without pH adjustment (pH 3.67 and pH 3.50). A RMZ sample set to pH 3 served as a control.
# The permeated amount and the corresponding mucosa permeation rates of the oromucosal delivery system prepared according to Examples 2a were determined as outlined above. The remimazolam permeated amount in the receptor medium (phosphate buffer solution pH 7.4) at a temperature of 37±1° C. was measured and the corresponding mucosa permeation rate calculated.
# [2] = pH and appearance of permeation donor solutions; type: physicochemical; details: Artificial Saliva
# Method: as §1, §2
compound,measurement,setting,value
"COC(=O)CC[C@@H]1N=C(c2ccccn2)c2cc(Br)ccc2-n2c(C)cnc21.O=S(=O)(O)c1ccccc1 [RMZ, remimazolam besylate]",Sedation/anaesthesia score,Goettingen minipigs,¾
same,permeation rate (assessment),"[1]; artificial saliva, pH 4.5 and pH 6",poor
same,mucosa permeation rate,"[1]; n = 3, in artificial saliva (pH 2), 2.5 min",1.98 μg/cm^2 min
same,mucosa permeation rate,"[1]; n = 3, in artificial saliva (pH 2), 7.5 min",2.09 μg/cm^2 min
same,mucosa permeation rate,"[1]; n = 3, in artificial saliva (pH 2), 12.5 min",1.83 μg/cm^2 min
same,mucosa permeation rate,"[1]; n = 3, in artificial saliva (pH 2), 17.5 min",1.95 μg/cm^2 min
same,mucosa permeation rate,"[1]; n = 3, in artificial saliva (pH 2), 22.5 min",1.92 μg/cm^2 min
same,mucosa permeation rate,"[1]; n = 3, in artificial saliva (pH 2), 27.5 min",2.04 μg/cm^2 min
same,mucosa permeation rate,"[1]; n = 3, in artificial saliva (pH 2), 45 min",1.36 μg/cm^2 min
same,mucosa permeation rate,"[1]; n = 3, in artificial saliva (pH 3), 2.5 min",0.19 μg/cm^2 min
same,mucosa permeation rate,"[1]; n = 3, in artificial saliva (pH 3), 7.5 min",0.75 μg/cm^2 min
same,mucosa permeation rate,"[1]; n = 3, in artificial saliva (pH 3), 12.5 min",1.18 μg/cm^2 min
same,mucosa permeation rate,"[1]; n = 3, in artificial saliva (pH 3), 17.5 min",1.43 μg/cm^2 min
same,mucosa permeation rate,"[1]; n = 3, in artificial saliva (pH 3), 22.5 min",1.62 μg/cm^2 min
same,mucosa permeation rate,"[1]; n = 3, in artificial saliva (pH 3), 27.5 min",1.80 μg/cm^2 min
same,mucosa permeation rate,"[1]; n = 3, in artificial saliva (pH 3), 45 min",1.60 μg/cm^2 min
same,mucosa permeation rate,"[1]; n = 3, in artificial saliva (pH 4.5), 2.5 min",0.09 μg/cm^2 min
same,mucosa permeation rate,"[1]; n = 3, in artificial saliva (pH 4.5), 7.5 min",0.37 μg/cm^2 min
same,mucosa permeation rate,"[1]; n = 3, in artificial saliva (pH 4.5), 12.5 min",0.22 μg/cm^2 min
same,mucosa permeation rate,"[1]; n = 3, in artificial saliva (pH 4.5), 17.5 min",0.26 μg/cm^2 min
same,mucosa permeation rate,"[1]; n = 3, in artificial saliva (pH 4.5), 22.5 min",0.34 μg/cm^2 min
same,mucosa permeation rate,"[1]; n = 3, in artificial saliva (pH 4.5), 27.5 min",0.58 μg/cm^2 min
same,mucosa permeation rate,"[1]; n = 3, in artificial saliva (pH 4.5), 45 min",0.26 μg/cm^2 min
same,mucosa permeation rate,"[1]; n = 3, in artificial saliva (pH 6), 2.5 min",0.11 μg/cm^2 min
same,mucosa permeation rate,"[1]; n = 3, in artificial saliva (pH 6), 7.5 min",0.18 μg/cm^2 min
same,mucosa permeation rate,"[1]; n = 3, in artificial saliva (pH 6), 12.5 min",0.18 μg/cm^2 min
same,mucosa permeation rate,"[1]; n = 3, in artificial saliva (pH 6), 17.5 min",0.31 μg/cm^2 min
same,mucosa permeation rate,"[1]; n = 3, in artificial saliva (pH 6), 22.5 min",0.37 μg/cm^2 min
same,mucosa permeation rate,"[1]; n = 3, in artificial saliva (pH 6), 27.5 min",0.58 μg/cm^2 min
same,mucosa permeation rate,"[1]; n = 3, in artificial saliva (pH 6), 45 min",0.47 μg/cm^2 min
same,mucosa permeation rate,"[1]; n = 6, in artificial saliva (pH 3), 2.5 min",0.01 μg/cm^2 min
same,mucosa permeation rate,"[1]; n = 6, in artificial saliva (pH 3), 7.5 min",0.21 μg/cm^2 min
same,mucosa permeation rate,"[1]; n = 6, in artificial saliva (pH 3), 12.5 min",0.65 μg/cm^2 min
same,mucosa permeation rate,"[1]; n = 6, in artificial saliva (pH 3), 17.5 min",1.08 μg/cm^2 min
same,mucosa permeation rate,"[1]; n = 6, in artificial saliva (pH 3), 22.5 min",1.38 μg/cm^2 min
same,mucosa permeation rate,"[1]; n = 6, in artificial saliva (pH 3), 27.5 min",1.56 μg/cm^2 min
same,mucosa permeation rate,"[1]; n = 6, in artificial saliva (pH 3), 45 min",1.23 μg/cm^2 min
same,"mucosa permeation, comparison between samples","[1]; run 2, n = 6, 0.9% NaCl and artificial saliva",no significant difference
same,Appearance of Donor Solution,"[2]; run 1, set pH 2",Clear solution
same,Appearance of Donor Solution,"[2]; run 1, set pH 3",Little RMZ solid
same,Appearance of Donor Solution,"[2]; run 1, set pH 4.5",Much RMZ solid
same,Appearance of Donor Solution,"[2]; run 1, set pH 6",Very much RMZ solid
same,Appearance of Donor Solution,"[2]; run 2, set pH 3",Little RMZ solid
